“Also recorded” adds a separate entry of the source. Read-outs that look alike come from different tables or passages of the source.
What was measured:
[1] = Parallel Artificial Membrane Permeability Assay (PAMPA); settings: pH 7.4
Method: Parallel Artificial Membrane Permeability Assay (PAMPA) was conducted by Biomek FX lab automation workstation (Beckman Coulter, Inc.) and PAMPA evolution 96 command software (pION Inc.). A 3 µL aliquot of […] test compound stock in DMSO was mixed with 597 µL of isotonic citrate phosphate buffered saline to make diluted test compound. Diluted test compound (150 µL) was transferred to a UV plate (pION Inc.) and the UV spectrum was read as the reference plate. The membrane on a pre-loaded PAMPA sandwich (pION Inc.) was painted with 4 µL GIT lipid (pION Inc.). The acceptor chamber was then filled with 200 µL acceptor solution buffer, (pION Inc.), and the donor chamber was filled with 180 µL diluted test compound. The PAMPA sandwich was assembled, placed on the Gut-Box and stirred for 30 min. The Aqueous Boundary Layer was set to 40 µm for stirring. The UV spectrum (250-500 nm) of the donor and the acceptor solutions were recorded. The permeability coefficient was calculated using PAMPA Evolution 96 Command software (pION Inc.) based on the AUC of the reference plate, the donor plate and the acceptor plate. All compounds were tested in triplicate.

[2] = test system: L. mexicana intracellular amastigotes; assay: Growth inhibition of intracellular amastigotes in J774A.1 macrophages (Renilla luciferase luminescence); format: cell-based; settings: Leishmania mexicana, J774.A1; intracellular amastigotes in J774A.1 macrophages; mean ± standard deviation, n = 2; read-out: L. mexicana EC50
Method: (§1) L. mexicana (MNYZ/BZ/62/M379) or L. donovani (LdBob strain) parasites expressing the Renilla luciferase gene from a rRNA gene locus were used to infect J774A.1 macrophages. Growth of intracellular amastigotes was measured using a luminescence assay, as detailed previously. The growth inhibitor activities of compounds were tested against bloodstream form Lister 427 T. brucei in 96-well plates containing 1 X 10^5 parasites per well in 0.2 ml HMI-11 medium (Gibco/Thermo Fisher). Compounds (2 μl volumes in DMSO) were added to the parasites using serial 3-fold dilutions to cover a range of concentrations from about 10 μM to 1 nM. After 48 h incubation at 37°C under a humidified 5% CO2 atmosphere, 10 μl of 10% Triton X-100 and 100 X stock SYBR Green I (Sigma-Aldrich) in PBS was added and florescence measured (excitation 497 nm; emission 520 nm) after 1 h incubation in the dark using a Spectra Max Gemini XPS fluorimeter (Molecular Devices). Data were log transformed and EC50 values were determined using GraphPad Prism 6 (GraphPad Software). In the absence of growth inhibiting compounds, the parasites grew from an initial density of 5 X 10^5 cells/mL to ~3 X 10^6 cells/mL.
[…]. These were chosen as candidates for further study. From these 230 compounds, we were able to repurchase 113 from commercial vendors. These compounds were characterized for purity by ultra-performance liquid chromatography using ultraviolet spectroscopy and evaporative light scattering detection and identity by mass spectrometry. All validated compounds were profiled for activity against intracellular amastigotes, the disease-causing stage of the life cycle. Intracellular amastigote activity was determined using a strain of L. mexicana in which the Renilla luciferase gene was integrated into the rRNA locus, allowing robust expression for measuring amastigote growth within cultured macrophages. All 113 compounds were applied at 1 μM concentration for 96 h to J774A.1 macrophages infected with L. mexicana luciferase-expressing parasites. […].
Next, we generated dose-response curves for these 55 compounds against intracellular amastigotes and independently against J774A.1 macrophages to establish the relative potency of each compound against the pathogen and its host cell. […]. The nine remaining compounds, each representing a unique chemical scaffold (compounds 1–9, Fig 3), were designated top hits (Fig 1).

[3] = test system: bloodstream form Lister 427 T. brucei; assay: Growth inhibition of T. brucei bloodstream forms (SYBR Green I); format: cell-based; settings: Trypanosoma brucei, bloodstream form; mean ± standard deviation, n = 2; read-out: T. brucei EC50
Method: as §1

[4] = Dose-ranging tolerability / 10-day toxicity study in mice; format: in vivo, mouse
Method: Drug doses were chosen based on pilot toxicology and pharmacokinetic studies. Female BALB/C mice (compound 4) or C57BL6 (compound 5) of 17–21 grams were purchased from Charles River Laboratories (Wilmington, MA). Food and water were provided ad libitum. Two mice were used as control and another 5 mice were dosed daily via oral gavage (25 mg/kg with compound 4 and 50 mg/kg with compound 5). Every day blood was collected by retro-orbital bleed from one animal from the treatment group for pharmacokinetics. […] Each mouse received two blood collections and glucose measurements over the 10-day course of treatment.

[5] = test system: Caco-2 cells; assay: Caco-2 permeability assay; format: in vitro ADME; settings: predicted from solubility and membrane permeability
[6] = test system: J774A.1 macrophages; assay: Cytotoxicity to J774A.1 macrophages (dose-response); format: cell-based; settings: for EC50: Mus musculus, J774.A1, host macrophage, tested up to 10 μM, mean ± standard deviation, n = 2, read-out: J774A.1 EC50
Method: Cytotoxicity of compounds to J774.A1 macrophages was determined by dose-response curves as described previously. In the absence of growth inhibitors or DMSO, the macrophages increased in number ~6-fold over 96 h in Minimum Essential Medium, employed for both macrophage infections and the toxicity assays.

[7] = Dose-ranging tolerability / 10-day toxicity study in mice; format: in vivo, mouse; settings: oral, 30 mg/kg
[8] = test system: bloodstream form Lister 427 T. brucei; set-up: method as in PMID 23484493; settings: bloodstream form of Trypanosoma brucei; read-out: T. brucei bloodstream form EC50 (previously reported); cited from earlier work
[9] = 50 mg/kg, 10-day toxicity study

SMILES | Papp at 30 min, 0.05 µM [1] | EC50 [2] | EC50 [3] | Tolerability of daily oral administration ([4]; daily oral, 25 mg/kg) | Seizures ([4]; oral gavage, 25 mg/kg) | Glucose level ([4]; oral gavage, 25 mg/kg, at Cmax and Cmin) | Seizures / seizure-like behavior ([4]; oral gavage, 50 mg/kg) | Glucose level in plasma ([4]; oral gavage, 50 mg/kg, untreated mice 185–251 mg/dl) | Predicted absorption across the intestinal epithelium [5] | EC50 [6] | Reduction in viability / inhibition of host macrophage J774A.1 in dose-response studies ([6]; up to 10 μM) | Tolerability (weight loss, appetite, other toxicity) [7] | EC50 [8] | Food intake [4, 9] | Weight loss [4, 9]
COc1ccc(-c2c(C(F)(F)F)oc3c(CN4CCN(C)CC4)c(O)ccc3c2=O)cc1OC [Compound 4] | 375 ×10⁻⁶ cm/s | 80 nM | 11000 ± 1000 nM | well-tolerated in all study animals; also recorded: No weight loss or other toxicity was observed | no seizures were seen | remained within normal limits | half of the animals exhibited seizure-like behavior | 23 to 40 mg/dL | ~ 85% | > 10000 nM | no reduction in viability; also recorded: no inhibition of J774A.1 macrophages up to 10 μM concentration |  |  |  | 
Cc1ccc(-c2nc3ccccc3s2)cc1NC(=O)c1cc([N+](=O)[O-])c(N2CCN(C)CC2)cc1Cl [Compound 5] | 237 ×10⁻⁶ cm/s | 22 nM |  |  |  |  |  |  |  | 1100 ± 800 nM |  | suppressed appetite was resolved by dose reduction to 30 mg/kg; also recorded: No weight loss or other toxicity was observed | 27 nM | reduced food intake | more than 10%

Reference: PMC5764437, “Discovery of novel, orally bioavailable, antileishmanial compounds using phenotypic screening” (PLoS Neglected Tropical Diseases, 2017)
